US9770026B2, “Substituted pyrimidine compound and uses thereof” (Shenyang Sinochem Agrochemicals R&D Co., Ltd., priority 2012, dated 2017)

Columns and labels:
cucumber downy mildew = assay: protectant activity in vivo against cucumber downy mildew
armyworm = assay: bioactivity test against armyworm, airbrush spray; assay type: in vivo
wheat powdery mildew = assay: protectant activity in vivo against wheat powdery mildew
[1] = system: Green peach aphids (Myzus Persicae Sulzer); assay: bioactivity test against green peach aphid, airbrush foliar spray; assay type: in vivo
In short: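 Death rate was scored at 48 hrs, held at 25±1 C and 60±5% RH, following airbrush foliar spray (0.5 mL, 10 psi) onto cabbage leaf discs bearing about 15-30 aphids. Test solutions: compound dissolved in 1:1 acetone:methanol, brought to concentration with 0.1% tween 80 water.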

carmine spider mite = assay: bioactivity test against carmine spider mite, airbrush spray; assay type: in vivo
In short: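 Broadbean seedlings infested with adult mites were sprayed with compound (acetone/methanol stock diluted in 0.1% Tween 80 water) by airbrush at 0.7 kg/cm^2, 0.5 ml. Three replicates were run. Mortality was scored after 72 hrs.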

Diamond back moth = assay: insecticidal activity against diamond back moth, airbrush spray; assay type: in vivo
Experimental: Compounds were dissolved in mixed solvent (acetone:methanol=1:1), and diluted to required concentration with water containing 0.1% of tween 80.
Diamond back moth, armyworm, peach aphid and carmine spider mite were used as targets and the method of spraying by airbrush was used for determination of insecticidal biassays.
The method of spraying by airbrush: The cabbage leaves were made into plates of 2 cm diameter by use of punch. A test solution (0.5 ml) was sprayed by airbrush at the pressure of 0.7 kg/cm^2 to both sides of every plate. 10 Second instar larvae were put into the petri-dishes after the leaf disc air-dried and 3 replicates were set for each treatment. Then the insects were maintained in observation room (25° C., 60˜70% R.H.). Scores were conducted and mortalities were calculated after 72 hrs.

corn rust = assay: protectant activity in vivo against corn rust; details: Zea mays, 168 h
[2] = 100 ppm, mortality after 72 hrs
[3] = 600 ppm, mortality after 72 hrs

With `CCc1ncnc(NCCc2ccc(Oc3ccc(C#N)cn3)cc2)c1Cl` [Compound I-255] the “protectant activity against cucumber downy mildew in vivo” value (cucumber downy mildew; 25 ppm) was 100%, the “protectant activity against cucumber downy mildew in vivo” value (cucumber downy mildew; 50 ppm) was 100% and the “protectant activity against cucumber downy mildew in vivo” value (cucumber downy mildew; 100 ppm) was 100%. The “protectant activity against cucumber downy mildew in vivo” value (cucumber downy mildew; 400 ppm) was 100%, the “Insecticidal activity against armyworm (%)” value (armyworm; 10 mg/L) was 25% and the “Insecticidal activity against armyworm (%)” value (armyworm; 100 mg/L) was 100%. For the same compound, the “Insecticidal activity against armyworm (%)” value (armyworm; 600 mg/L) was 100%, the “control (test results against armyworm)” value (armyworm; 100 ppm, mortality after 72 h) was 100% and the “control (test results against armyworm)” value (armyworm; 600 ppm, mortality after 72 h) was 100%. The “protectant activity against wheat powdery mildew in vivo” value (wheat powdery mildew; 25 ppm) was 100%, the “protectant activity against wheat powdery mildew in vivo” value (wheat powdery mildew; 100 ppm) was 100% and the “protectant activity against wheat powdery mildew in vivo” value (wheat powdery mildew; 400 ppm) was 100%. For the same compound, the “control (test results against green peach aphid)” value ([1]; 10 ppm, death rate after 48 hrs) was 100%, the “control (test results against green peach aphid)” value ([1]; 100 ppm, death rate after 48 hrs) was 100% and the “control (test results against green peach aphid)” value ([1]; 600 ppm, death rate after 48 hrs) was 100%. The “Insecticidal activity against carmine spider mite (% )” value (“Insecticidal activity … (% )” for short) (carmine spider mite; 2.5 mg/L) was 72%, the “Insecticidal activity … (% )” value (carmine spider mite; 5 mg/L) was 84% and the “Insecticidal activity … (% )” value (carmine spider mite; 10 mg/L, contrastive test) was 85%. The “Insecticidal activity … (% )” value (carmine spider mite; 100 mg/L, contrastive test) was 100%, the “Insecticidal activity … (% )” value (carmine spider mite; 600 mg/L, contrastive test) was 100% and the “control against carmine spider mite” value (carmine spider mite; [2]) was 100%. The “control against carmine spider mite” value (carmine spider mite; [3]) was 100%, the “Insecticidal activity against diamond back moth (%)” value (Diamond back moth; 10 mg/L) was 43% and the “Insecticidal activity against diamond back moth (%)” value (Diamond back moth; 100 mg/L) was 100%. For the same compound, the “Insecticidal activity against diamond back moth (%)” value (Diamond back moth; 600 mg/L) was 100%, the “control (test results against diamond back moth)” value (Diamond back moth; [2]) was 100% and the “control (test results against diamond back moth)” value (Diamond back moth; [3]) was 100%.

Work on `FC(F)c1ncnc(NCCc2ccc(Oc3ccc(Cl)cc3)cc2)c1Cl` [II-8915] yielded a pest or weed control at 3.125 µg/mL (cucumber downy mildew; Cucumis sativus, 168 h, read-out: control effect against cucumber downy mildew (%), 3.125 mg/L, protectant activity) of 20%, a pest or weed control at 6.25 µg/mL (cucumber downy mildew; Cucumis sativus, 168 h, read-out: control effect against cucumber downy mildew (%), 6.25 mg/L, protectant activity) of 90% and a pest or weed control at 12.5 µg/mL (cucumber downy mildew; Cucumis sativus, 168 h, read-out: control effect against cucumber downy mildew (%), 12.5 mg/L, protectant activity) of 95%. It also gave a pest or weed control at 25 µg/mL (cucumber downy mildew; Cucumis sativus, 168 h, read-out: control effect against cucumber downy mildew (%), 25 mg/L, protectant activity) of 99%, a pest or weed control at 50 µg/mL (cucumber downy mildew; Cucumis sativus, 168 h, read-out: control effect against cucumber downy mildew (%), 50 mg/L, protectant activity) of 100% and a pest or weed control at 100 µg/mL (cucumber downy mildew; Cucumis sativus, 168 h, read-out: control effect against cucumber downy mildew (%), 100 mg/L, protectant activity) of 100%. The pest or weed control at 400 µg/mL (cucumber downy mildew; Cucumis sativus, 168 h, read-out: control effect against cucumber downy mildew (%), 400 mg/L, protectant activity) was 100%, the pest or weed control at 6.25 ppm (cucumber downy mildew; Cucumis sativus, 168 h, read-out: protectant activity against cucumber downy mildew in vivo, 6.25 ppm) was 80 to 99% and the pest or weed control at 12.5 ppm (cucumber downy mildew; Cucumis sativus, 168 h, read-out: protectant activity against cucumber downy mildew in vivo, 12.5 ppm) was 80 to 99%. For the same compound, the pest or weed control at 25 ppm (cucumber downy mildew; Cucumis sativus, 168 h, read-out: protectant activity against cucumber downy mildew in vivo, 25 ppm) was 80 to 99%, the pest or weed control at 50 ppm (cucumber downy mildew; Cucumis sativus, 168 h, read-out: protectant activity against cucumber downy mildew in vivo, 50 ppm) was 80 to 99% and the pest or weed control at 100 ppm (cucumber downy mildew; Cucumis sativus, 168 h, read-out: protectant activity against cucumber downy mildew in vivo, 100 ppm) was 100%. For the same compound, the pest or weed control at 400 ppm (cucumber downy mildew; Cucumis sativus, 168 h, read-out: protectant activity against cucumber downy mildew in vivo, 400 ppm) was 100%, the pest or weed control at 10 µg/mL (armyworm; 72 h, 10 mg/L, read-out: Insecticidal activity against armyworm (%)) was 44% and the pest or weed control at 100 µg/mL (armyworm; 72 h, 100 mg/L, read-out: Insecticidal activity against armyworm (%)) was 95%. For the same compound, the pest or weed control at 600 µg/mL (armyworm; 72 h, 600 mg/L, read-out: Insecticidal activity against armyworm (%)) was 100%, the pest or weed control at 100 ppm (armyworm; 72 h, 100 ppm, mortality after 72 h) was 80 to 99% and the pest or weed control at 600 ppm (armyworm; 72 h, 600 ppm, mortality after 72 h) was 100%. It also gave a pest or weed control at 1.25 µg/mL ([1]; Myzus persicae, foliar, 48 h, 1.25 mg/L, contrastive test, read-out: Insecticidal activity against peach aphid (%)) of 100%, a pest or weed control at 2.5 µg/mL ([1]; Myzus persicae, foliar, 48 h, 2.5 mg/L, contrastive test, read-out: Insecticidal activity against peach aphid (%)) of 100% and a pest or weed control at 5 µg/mL ([1]; Myzus persicae, foliar, 48 h, 5 mg/L, contrastive test, read-out: Insecticidal activity against peach aphid (%)) of 100%. The pest or weed control at 10 µg/mL ([1]; Myzus persicae, foliar, 48 h, 10 mg/L, contrastive test, read-out: Insecticidal activity against peach aphid (%)) was 100%, the pest or weed control at 100 µg/mL ([1]; Myzus persicae, foliar, 48 h, 100 mg/L, contrastive test, read-out: Insecticidal activity against peach aphid (%)) was 100% and the pest or weed control at 600 µg/mL ([1]; Myzus persicae, foliar, 48 h, 600 mg/L, contrastive test, read-out: Insecticidal activity against peach aphid (%)) was 100%. The pest or weed control at 2.5 ppm ([1]; Myzus persicae, foliar, 48 h, 2.5 ppm, death rate after 48 hrs) was 100%, the pest or weed control at 5 ppm ([1]; Myzus persicae, foliar, 48 h, 5 ppm, death rate after 48 hrs) was 100% and the pest or weed control at 10 ppm ([1]; Myzus persicae, foliar, 48 h, 10 ppm, death rate after 48 hrs) was 100%. The pest or weed control at 100 ppm ([1]; Myzus persicae, foliar, 48 h, 100 ppm, death rate after 48 hrs) was 100%, the pest or weed control at 600 ppm ([1]; Myzus persicae, foliar, 48 h, 600 ppm, death rate after 48 hrs) was 100% and the pest or weed control at 100 ppm (carmine spider mite; Tetranychus cinnabarinus, 72 h, 100 ppm, mortality after 72 hrs) was 100%. It also gave a pest or weed control at 600 ppm (carmine spider mite; Tetranychus cinnabarinus, 72 h, 600 ppm, mortality after 72 hrs) of 100%, a pest or weed control at 0.4 µg/mL (corn rust; read-out: control effect against corn rust (%), 0.4 mg/L, protectant activity) of 30% and a pest or weed control at 1.6 µg/mL (corn rust; read-out: control effect against corn rust (%), 1.6 mg/L, protectant activity) of 80%. For the same compound, the pest or weed control at 6.25 µg/mL (corn rust; read-out: control effect against corn rust (%), 6.25 mg/L, protectant activity) was 100%, the pest or weed control at 25 µg/mL (corn rust; read-out: control effect against corn rust (%), 25 mg/L, protectant activity) was 100% and the pest or weed control at 100 µg/mL (corn rust; read-out: control effect against corn rust (%), 100 mg/L, protectant activity) was 100%. The pest or weed control at 400 µg/mL (corn rust; read-out: control effect against corn rust (%), 400 mg/L, protectant activity) was 100%, the pest or weed control at 6.25 ppm (corn rust; read-out: protectant activity against corn rust in vivo, 6.25 ppm) was 100% and the pest or weed control at 25 ppm (corn rust; read-out: protectant activity against corn rust in vivo, 25 ppm) was 100%. The pest or weed control at 100 ppm (corn rust; read-out: protectant activity against corn rust in vivo, 100 ppm) was 100%, the pest or weed control at 400 ppm (corn rust; read-out: protectant activity against corn rust in vivo, 400 ppm) was 100% and the pest or weed control at 600 ppm (Diamond back moth; 72 h, 600 ppm, mortality after 72 hrs, read-out: control (test results against diamond back moth)) was 100%.
